Experiments:
Type in all cases: in vivo
[1] = system: Echinochloa crus-galli; experiment: Paddy herbicidal activity test; conditions: irrigated pot, treated at 3.5 leaf stage of Echinochloa crus-galli, 30 days
Experimental: (§1) 1. Paddy Herbicidal Activity Test Rice paddy soil was filled into a 1/10000 are pot followed by the addition of suitable amounts of water and chemical fertilizer, kneading, seeding with Echinochloa crus-galli, Monochoria vaginalis and Scirpus juncoides and maintaining in an irrigated state at a water depth of 3 cm. Wettable powders of Target Compound (I) shown in Table 1 prepared in compliance with the preparation examples were diluted with a suitable amount of water, rice plants in the 2.0 leaf stage were transplanted during 3.5 leaf stage of Echinochloa crus-galli, and treated by dropping in chemical in the prescribed amount per 10 are using a pipette. After treating for 30 days in a glass greenhouse at an average atmospheric temperature of 30° C., the herbicidal efficacy thereof was investigated. Evaluation of herbicidal efficacy was carried out by comparing growth inhibition rate (%) with an untreated group, while evaluation of phytotoxicity was carried out by comparing growth inhibition rate (%) with the state of a complete eradication group, and were evaluated at 11 levels indicated below.

[2] = system: Monochoria vaginalis; experiment: Paddy herbicidal activity test; conditions: irrigated pot, 30 days
Experimental: as §1

[3] = system: Scirpus juncoides; experiment: Paddy herbicidal activity test; conditions: irrigated pot, 30 days
Experimental: as §1

[4] = system: Oryza sativa; experiment: Paddy herbicidal activity test, phytotoxicity to transplanted rice; conditions: rice transplanted in 2.0 leaf stage, 30 days
Experimental: as §1

[5] = system: Amaranthus retroflexus; experiment: Farming soil treatment test; conditions: soil surface spray prior to weed growth, 30 days
Experimental: (§2) Field soil was filled into a 1/6000 are pot followed by seeding with Digitaria ciliaris, Chenopodium album and Amaranthus retroflexus and covering with soil. Wettable powders of compounds of formula (I) shown in Table 1 prepared in compliance with the preparation examples were diluted with water to the prescribed amount of chemical and uniformly sprayed onto each soil surface layer using 100 liters of sprayed water per 10 are prior to weed growth following seeding. After treating for 30 days in a glass greenhouse at an average atmospheric temperature of 30° C., the herbicidal efficacy thereof was investigated. Evaluation of herbicidal efficacy was carried out in the same manner as the above-mentioned Test Example 1.

[6] = system: Chenopodium album; experiment: Farming soil treatment test; conditions: soil surface spray prior to weed growth, 30 days
Experimental: as §2

[7] = system: Digitaria ciliaris; experiment: Farming soil treatment test; conditions: soil surface spray prior to weed growth, 30 days
Experimental: as §2

[8] = system: Amaranthus retroflexus; experiment: Weed foliar treatment test (Test 3, 1.0 to 2.0 leaf stage); conditions: foliar spray at 1.0 to 2.0 leaf stage of Digitaria ciliaris, 3 weeks
Experimental: (§3) Soil was filled into a 1/6000 are pot followed by seeding with Digitaria ciliaris, Chenopodium album and Amaranthus retroflexus, covering with soil, and cultivating in a glass greenhouse at an average atmospheric temperature of 25° C. Wettable powders of Target Compound (I) shown in Table 1 prepared in compliance with the preparation examples were diluted with water to the prescribed amount of chemical and uniformly sprayed onto the weeds using 150 liters of sprayed water per 10 are when Digitaria ciliaris had grown to the 1.0 to 2.0 leaf stage. After treating for 3 weeks in a glass greenhouse at an average atmospheric temperature of 25° C., the herbicidal efficacy thereof was investigated. Evaluation of herbicidal efficacy was carried out in the same manner as the above-mentioned Test Example 1.

[9] = system: Chenopodium album; experiment: as above; conditions: foliar spray at 1.0 to 2.0 leaf stage of Digitaria ciliaris, 3 weeks
Experimental: as §3

[10] = system: Digitaria ciliaris; experiment: as above; conditions: foliar spray at 1.0 to 2.0 leaf stage of Digitaria ciliaris, 3 weeks
Experimental: as §3

[11] = system: Digitaria ciliaris; experiment: Weed foliar treatment test (Test 4, 4.0 to 5.0 leaf stage); conditions: 10 g a.i./10 a; foliar spray at 4.0 to 5.0 leaf stage of Digitaria ciliaris (plant height 10 cm to 15 cm); 20 days
Experimental: (§4) Field soil was filled into a 1/4500 are pot followed by seeding with Digitaria ciliaris and Galinsoga parviflora, covering with soil and cultivating in a glass greenhouse at an average atmospheric temperature of 25° C.
(§5) Wettable powders of Target Compound (I) shown in Table 1 prepared in compliance with the preparation examples were diluted with water to the prescribed amount of chemical and uniformly sprayed onto the weeds using 100 liters of sprayed water per 10 are when Digitaria ciliaris had grown to the 4.0 to 5.0 leaf stage (plant height: 10 cm to 15 cm).
(§6) After treating for 20 days in a glass greenhouse at an average atmospheric temperature of 25° C., the herbicidal efficacy thereof was investigated.
(§7) Evaluation of herbicidal efficacy was carried out in the same manner as the above-mentioned Test Example 1.

[12] = system: Galinsoga parviflora; experiment: as above; conditions: 10 g a.i./10 a; foliar spray at 4.0 to 5.0 leaf stage of Digitaria ciliaris; 20 days
Experimental: as §4, §5, §6, §7

Row | Structure (SMILES) | herbicidal efficacy, Echinochloa crus-galli ([1]; 1 g a.i./10 a) | herbicidal efficacy, Echinochloa crus-galli ([1]; 5 g a.i./10 a) | herbicidal efficacy, Monochoria vaginalis ([2]; 1 g a.i./10 a) | herbicidal efficacy, Monochoria vaginalis ([2]; 5 g a.i./10 a) | herbicidal efficacy, Scirpus juncoides ([3]; 1 g a.i./10 a) | herbicidal efficacy, Scirpus juncoides ([3]; 5 g a.i./10 a) | phytotoxicity, Oryza sativa ([4]; 1 g a.i./10 a) | phytotoxicity, Oryza sativa ([4]; 5 g a.i./10 a) | herbicidal efficacy, Amaranthus retroflexus ([5]; 5 g a.i./10 a) | herbicidal efficacy, Amaranthus retroflexus ([5]; 10 g a.i./10 a) | herbicidal efficacy, Chenopodium album ([6]; 5 g a.i./10 a) | herbicidal efficacy, Chenopodium album ([6]; 10 g a.i./10 a) | herbicidal efficacy, Digitaria ciliaris ([7]; 5 g a.i./10 a) | herbicidal efficacy, Digitaria ciliaris ([7]; 10 g a.i./10 a) | herbicidal efficacy, Amaranthus retroflexus ([8]; 5 g a.i./10 a) | herbicidal efficacy, Amaranthus retroflexus ([8]; 10 g a.i./10 a) | herbicidal efficacy, Chenopodium album ([9]; 5 g a.i./10 a) | herbicidal efficacy, Chenopodium album ([9]; 10 g a.i./10 a) | herbicidal efficacy, Digitaria ciliaris ([10]; 5 g a.i./10 a) | herbicidal efficacy, Digitaria ciliaris ([10]; 10 g a.i./10 a) | other results
1 | N#Cc1cnn(-c2nn3c(c2Cl)CCCC3)c1/C=C/c1ncccn1 [Compound 3.39, reference compound] | 1 (10% to less than 20%) | 2 (20% to less than 30%) | 2 (20% to less than 30%) | 3 (30% to less than 40%) | 0 (0% to less than 10% (growth inhibition rate)) | 0 (0% to less than 10% (growth inhibition rate)) | 0 (0% to less than 10% (growth inhibition rate)) | 1 (10% to less than 20%) | 2 (20% to less than 30%) | 3 (30% to less than 40%) | 4 (40% to less than 50%) | 4 (40% to less than 50%) | 3 (30% to less than 40%) | 4 (40% to less than 50%) | 1 (10% to less than 20%) | 2 (20% to less than 30%) | 4 (40% to less than 50%) | 5 (50% to less than 60%) | 2 (20% to less than 30%) | 3 (30% to less than 40%) | herbicidal efficacy, Digitaria ciliaris [11]: 2 (20% to less than 30%); herbicidal efficacy, Galinsoga parviflora [12]: 3 (30% to less than 40%)
2 | N#Cc1cnn(-c2nn3c(c2Cl)CCCC3)c1/C=C/c1ccccn1 [Compound 3.43, reference compound] | 2 (20% to less than 30%) | 3 (30% to less than 40%) | 3 (30% to less than 40%) | 3 (30% to less than 40%) | 0 (0% to less than 10% (growth inhibition rate)) | 1 (10% to less than 20%) | 1 (10% to less than 20%) | 2 (20% to less than 30%) | 2 (20% to less than 30%) | 2 (20% to less than 30%) | 2 (20% to less than 30%) | 3 (30% to less than 40%) | 1 (10% to less than 20%) | 3 (30% to less than 40%) | 0 (0% to less than 10% (growth inhibition rate)) | 2 (20% to less than 30%) | 3 (30% to less than 40%) | 4 (40% to less than 50%) | 1 (10% to less than 20%) | 3 (30% to less than 40%) | herbicidal efficacy, Digitaria ciliaris [11]: 1 (10% to less than 20%); herbicidal efficacy, Galinsoga parviflora [12]: 3 (30% to less than 40%)
3 | N#Cc1cnn(-c2nn3c(c2Br)CCCC3)c1/C=C/c1ccccn1 [Compound 3.44, reference compound] | 1 (10% to less than 20%) | 2 (20% to less than 30%) | 2 (20% to less than 30%) | 2 (20% to less than 30%) | 0 (0% to less than 10% (growth inhibition rate)) | 1 (10% to less than 20%) | 0 (0% to less than 10% (growth inhibition rate)) | 1 (10% to less than 20%) | 0 (0% to less than 10% (growth inhibition rate)) | 2 (20% to less than 30%) | 2 (20% to less than 30%) | 3 (30% to less than 40%) | 0 (0% to less than 10% (growth inhibition rate)) | 1 (10% to less than 20%) | 0 (0% to less than 10% (growth inhibition rate)) | 0 (0% to less than 10% (growth inhibition rate)) | 1 (10% to less than 20%) | 2 (20% to less than 30%) | 0 (0% to less than 10% (growth inhibition rate)) | 0 (0% to less than 10% (growth inhibition rate)) | herbicidal efficacy, Digitaria ciliaris [11]: 0 (0% to less than 10% (growth inhibition rate)); herbicidal efficacy, Galinsoga parviflora [12]: 0 (0% to less than 10% (growth inhibition rate))
4 | N#Cc1cnn(-c2nn3c(c2Cl)CCCC3)c1N=Cc1ccncc1 [Compound 23] | 10 (100%) | 10 (100%) | 10 (100%) | 10 (100%) | 10 (100%) | 10 (100%) | 0 (0% to less than 10% (growth inhibition rate)) | 1 (10% to less than 20%) | 9 (90% to less than 100%) | 10 (100%) | 10 (100%) | 10 (100%) | 9 (90% to less than 100%) | 10 (100%) | 9 (90% to less than 100%) | 10 (100%) | 10 (100%) | 10 (100%) | 9 (90% to less than 100%) | 10 (100%) | herbicidal efficacy, Digitaria ciliaris [11]: 9 (90% to less than 100%); herbicidal efficacy, Galinsoga parviflora [12]: 10 (100%)
